Measured values reported in patent publication US20150031892A1, “SPHINGOLIPID METABOLITE MIMETICS” (Zhejiang University, priority 2012, published 2015).

What was measured:
Type in all cases: cell-based
HepG2 = experiment: MTT cytotoxicity assay, HepG2 (liver cancer); details: Homo sapiens
Method in brief: (§1)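 Cells were seeded at 7000 per well for 24 h, then given fresh medium with the mimetics at final concentrations of 0 to 200 μM. Viability was measured by adding 1 mg/ml MTT for 4 h at 37° C, dissolving the formazan in DMSO and reading absorbance at 570 nm.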

A431 = experiment: MTT cytotoxicity assay, A431 (squamous carcinoma); details: Homo sapiens, A-431
Method in brief: as §1

SA = experiment: MTT cytotoxicity assay, SA (pancreatic cancer as headed)
Method in brief: as §1

MCF-7 = experiment: MTT cytotoxicity assay, MCF-7 (breast cancer); details: Homo sapiens, MCF7; Breast Cancer MCF-7, MTT
Method in brief: as §1

SiHa = experiment: MTT cytotoxicity assay, SiHa (ovarian cancer as headed); details: Homo sapiens, Cervical Cancer SiHa
SW620 = experiment: MTT cytotoxicity assay, SW620 (colon cancer); details: Homo sapiens, SW-620
SW480 = experiment: MTT cytotoxicity assay, SW480 (colon cancer); details: Homo sapiens
[1] = system: multiple types of cancer cells; experiment: MTT cytotoxicity, statements over several cancer cell lines; details: for IC50: all five cell lines tested, read-out: IC50 values; for direct anti-cancer cell activity: summary statement
Method: Cell survival after exposure to the sphingolipid metabolite mimetics was examined by MTT cytotoxicity assay. HepG2, A431, HeLa, MCF-7 and SA cells (7000 cells/well) were seeded in each well of a 96-well plate for 24 h. New medium was added to give final concentrations of 0 to 200 μM of the sphingolipid metabolite mimetics. Then, 50 μl of 1 mg/ml 3-(4,5-dimethylthiazol-2-yl)-2,5-diphenyltetrazolium bromide (MTT, Sigma-Aldrich Chemical) was added to each well for 4 h incubation at 37° C. The purple formazan formed was then solubilized by DMSO and absorbance at 570 nm was read by a microplate reader (Molecular Devices, Sunnyvale, Calif.).

MES-SA cells = experiment: Apoptosis assay, Hoechst 33342 fluorescence staining; details: doses of their IC50 for 8 h
Method: The cells were then washed with PBS and stained with Hoechst 33342 (from sigma chemical) for 20 min in the dark. Morphologic changes were analyzed under a fluorescence microscope. The experiment was repeated three times.

CCCCCCCCCCCCNC(=O)[C@@H](NC(=O)Cc1c[nH]c2ccccc12)[C@@H](C)O [NZJU27, N-((2S,3R)-3-hydroxy-1-oxo-1-(dodecylamino)butan-2-yl)-indole-3-acetic acid amide]
IC50 (HepG2): 22.6 ± 2.89 µM
IC50 (A431): 23.4 ± 3.48 µM
IC50 (SA): 20 ± 0.74 µM
IC50 (MCF-7): 15.5 ± 2.3 µM
IC50 (SiHa): 13.6 ± 1.02 µM
IC50 (SW620): 22 ± 2.86 µM
IC50 (SW480): 20 µM
IC50 [1]: < 30 µM
direct anti-cancer cell activity [1]: direct anti-cancer cell activity
apoptotic cell death, fluorescent micrographs (FIG. 30) (MES-SA cells): apoptotic cell death

CCCCCCCCCCCCCCNC(=O)[C@@H](NC(=O)Cc1c[nH]c2ccccc12)[C@@H](C)O [NZJU28, N-((2S,3R)-3-hydroxy-1-oxo-1-(tetradecylamino)butan-2-yl)-indole-3-acetic acid amide]
IC50 (HepG2): 21.1 ± 1.92 µM
IC50 (A431): 15.5 ± 2.95 µM
IC50 (SA): 11.5 ± 0.97 µM
IC50 (MCF-7): 6.81 ± 1.73 µM
IC50 (SiHa): 4.8 ± 0.29 µM
IC50 (SW620): 22 ± 0.71 µM
IC50 (SW480): 20 µM
IC50 [1]: < 30 µM
direct anti-cancer cell activity [1]: direct anti-cancer cell activity
apoptotic cell death, fluorescent micrographs (FIG. 30) (MES-SA cells): apoptotic cell death

CCCCCCCCCCCCNC(=O)[C@@H](NC(=O)c1cc2ccccc2o1)[C@@H](C)O [NZJU36, N-((2S,3R)-3-hydroxy-1-oxo-1-(dodecylamino)butan-2-yl)-benzofuran-2-carboxamide]
IC50 (HepG2): 22.9 ± 1.18 µM
IC50 (A431): 20 ± 0.9 µM
IC50 (SA): 10.5 ± 1.31 µM
IC50 (MCF-7): 20.9 ± 0.54 µM
IC50 (SiHa): 12.8 ± 2.07 µM
IC50 (SW620): 21.3 ± 1.28 µM
IC50 (SW480): 21.4 µM
IC50 [1]: < 30 µM
direct anti-cancer cell activity [1]: direct anti-cancer cell activity
apoptotic cell death, fluorescent micrographs (FIG. 30) (MES-SA cells): apoptotic cell death

CCCCCCCCCCCCCCNC(=O)[C@@H](NC(=O)c1cc2ccccc2o1)[C@@H](C)O [NZJU37, N-((2S,3R)-3-hydroxy-1-oxo-1-(tetradecylamino)butan-2-yl)-benzofuran-2-carboxamide]
IC50 (HepG2): 23.4 ± 1.19 µM
IC50 (A431): 20.09 ± 0.16 µM
IC50 (SA): 9.61 ± 0.56 µM
IC50 (MCF-7): 23.4 ± 1.19 µM
IC50 (SiHa): 14.2 ± 1.84 µM
IC50 (SW620): 26.7 ± 2.48 µM
IC50 (SW480): 22.8 µM
IC50 [1]: < 30 µM
direct anti-cancer cell activity [1]: direct anti-cancer cell activity
apoptotic cell death, fluorescent micrographs (FIG. 30) (MES-SA cells): apoptotic cell death
